Data on 73 compounds can be found in PubChem BioAssay AID179 (DTP/NCI, 2004).

For the experiment, the system named is CEM cells HIV-1 protection, formazan growth assay. The experiment in a line: NCI AIDS Antiviral Assay. The settings on record: for IC50: measured here: growth of uninfected CEM cells. The gist of the method: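 Protection of CEM cells against HIV-1 was scored from cell growth (soluble formazan) across five concentrations, with parallel uninfected cells. Lack of protection may reflect toxicity.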

Structures are written as SMILES. Activity calls are given as the source filed them.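 The calls were made as follows: active = compounds giving half or more protection of infected cells from virus-caused growth loss, again on retest; inactive = the rest.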 Where a SMILES comes first, the peptide text is derived from it. The star is where a group is joined. Boc = CC(C)(C)OC(=O)*; OBn = c1ccc(CO*)cc1

In general, EC50 refers to the concentration at which the effect is half-maximal. What is called IC50 is the concentration that gives 50% inhibition. Low values mean greater potency in that assay, high ones weaker potency in that assay.

Take `CC(NC(=O)CNP(=O)(c1ccccc1)c1ccccc1)C(=O)NC(Cc1ccccc1)C(=O)OCc1ccccc1` (configuration not stated): the EC50 is above 200 µM and the IC50 was 20.4 µM.
In the same order, the values of `Cc1cccc2c(=O)c3cccc([C@@H](C)C(=O)O)c3oc12` are above 200 µM and 67.6 µM.
As for `OC(c1ccccc1)C1CC2C=CC1C2` (configuration not stated), the result was inactive.
For the compound `CCOP(=O)(OCC)/C(C#N)=C/C=C/c1ccco1`, the EC50 is above 646 µM and the IC50 amounted to 148 µM.
In the same order, the values of `Nc1c(N2CCOCC2)c(=O)nc2[nH]/c(=C\c3ccccc3O)c(=O)n12` are above 200 µM and 97.7 µM.
On to `C/C(CC(=O)Nc1ccccc1C)=N/NS(=O)(=O)c1ccc(C)cc1`, for which the EC50 is above 363 µM and the IC50 is above 363 µM.
As to `NC(=S)NNC(=O)CCC(=O)Nc1ccccc1Cl`, the result was inactive.
Consider `CN1Cc2ccccc2[C@H]2C(c3ccccc3)=NN(c3ccccc3)[C@H]21`, for which the EC50 was above 200 µM and the IC50 was above 200 µM.
As for `C(/C=C/c1ccccc1)=Nc1ccc(CCc2ccc(N=C/C=C/c3ccccc3)cc2)cc1`, the EC50 was above 1.23 µM and the IC50 is above 1.23 µM.
Regarding `O=C(NO)Nc1ccc(Cl)c(Cl)c1`, the result was inactive and the IC50 is 56.2 µM.
In the case of `CC(NC(=O)C(NC(=O)OC(C)(C)C)C(C)C)C(=O)N1CCCC1C(=O)NCC(=O)NC(C(=O)NCC(=O)OCc1ccccc1)C(C)C` (configuration not stated) (Boc-VAPGVG-OBn; configuration not given here), the EC50 was above 200 µM and the IC50 was above 200 µM.
Take `Cc1cn(C2C=CCCC2)c(=O)[nH]c1=O` (configuration not stated): the EC50 is above 871 µM and the IC50 is above 871 µM.
For the compound `Fc1ccc(F)c(C=NC23CC4CC(CC(C4)C2)C3)c1`, the EC50 was above 200 µM and the IC50 was above 200 µM.
Take `Cn1c(=O)[nH]n(C2Cn3c(=O)n(C)c(=O)n3-c3ccccc32)c1=O` (configuration not stated): the EC50 is above 200 µM and the IC50 is above 200 µM.
With `CC(O)(C(=O)N(O)c1ccc(Cl)cc1)c1ccc(Cl)cc1` (configuration not stated), the EC50 is above 20 µM and the IC50 was determined as 17.8 µM.
As for `CC(=O)OCC1OC(n2c(-c3ccc(C)cc3)cc(-c3ccccc3)c(C#N)c2=O)C(OC(C)=O)C(OC(C)=O)C1OC(C)=O` (configuration not stated), the EC50 is above 11.7 µM and the IC50 was above 11.7 µM.
Take `ON1CCc2c([nH]c3ccccc23)C1c1ccccc1Br` (configuration not stated): the outcome was inactive.
As to `O=C(CCC(=O)N/N=C/c1ccccc1O)N/N=C/c1ccccc1O`, the result was inactive.
On the same count and under the same terms, the entry for `CSC(=Nc1ccc([N+](=O)[O-])cc1C#N)NC(=O)c1ccccc1` is “inactive”.
Consider `Cn1c(N)cc[n+](C2CCC(CO)O2)c1=O` (configuration not stated) (tested in a mixture with another compound), for which the EC50 was 9.12 µM and the IC50 was determined as 708 µM.
As to `NCCc1ccc(O)c(O)c1`, the EC50 is above 200 µM and the IC50 is 132 µM.
In the same order, the values of `FC(F)(F)c1nc(Cl)c2ncsc2n1` are above 200 µM and 2.4 µM.
In the same order, the values of `CC(C)CCC[C@@H](C)C1CCC2[C@@H]3CCC4C[C@@H](CCC=C(c5cc(Cl)c(O)c(C(=O)O)c5)c5cc(Cl)c(O)c(C(=O)O)c5)CC[C@]4(C)C3CC[C@@]21C` (some centres not stated) are 32.4 µM and above 100 µM.
In the same order, the values of `O=S(=O)(O)OC1CCCC1S(=O)(=O)O` (configuration not stated) are above 200 µM and above 200 µM.
Take `NNC(=O)/C(=C/c1ccc(Cl)c(Cl)c1)NC(=O)c1ccccc1`: the EC50 is above 141 µM and the IC50 was above 141 µM.
Regarding `Clc1cccc(-c2sc(-c3ccsc3)cc2Cc2ccsc2)c1`, the outcome was inactive.
As to `CN(C)/C=N/NC(=O)/C(C#N)=C/N(C)C`, the EC50 is above 200 µM and the IC50 is above 200 µM.
`Oc1ccc2ccccc2c1N=Nc1ccsc1`: the EC50 is above 20.4 µM and the IC50 was above 20.4 µM.
As for `CN(C)CCNc1c2ccccc2nc2cccc([N+](=O)[O-])c12`, the EC50 is above 2 µM and the IC50 came to 0.024 µM.
In the same order, the values of `CC(=O)Oc1ccc2cc(Oc3ccc(Cl)c(Cl)c3)c(=O)oc2c1` are above 200 µM and 85.1 µM.
In the case of `C[C@]12C(=O)OC[C@H](c3ccccc3)N1C(=O)N(Cc1ccccc1)[C@@H]2CO`, the EC50 was above 200 µM and the IC50 is above 200 µM.
Turning to `CCCCCCCCCC1CC(=O)OC23CCCC(=O)C12O3` (configuration not stated), the EC50 is above 32.4 µM and the IC50 was above 32.4 µM.
Take `N#Cc1c(-c2ccc(Cl)cc2)c2c(n(C3OC(CO)C(O)C(O)C3O)c1=S)CCCC2` (configuration not stated): the EC50 is above 200 µM and the IC50 is 69.2 µM.
In the same order, the values of `O=C1C2C3C=CC(O3)C2C(=O)N1/N=C/c1ccc2c(c1)OCO2` (configuration not stated) are above 200 µM and above 200 µM.
In the same order, the values of `CCN(CC)CCNC(=O)c1ccc(I)cc1` are above 200 µM and above 200 µM.
On to `CCOC(=O)NC(=O)c1cn(CCOC(=O)NCCCCCCNC(=O)OCCn2cc(C(=O)NC(=O)OCC)c(=O)[nH]c2=O)c(=O)[nH]c1=O`, for which the outcome was inactive.
Consider `COc1ccc2c(O)c(S(=O)(=O)c3ccc(Cl)cc3)c(=O)oc2c1`, for which the EC50 is above 200 µM and the IC50 is 129 µM.
Regarding `NC(=O)N1N=C2c3ccccc3CC[C@@H]2C1c1ccccc1` (some centres not stated), the outcome was inactive.
For `COc1cc(/C=C2\C(=O)N(c3ccc(Cl)cc3)C(c3ccccc3)S2(=O)=O)cc(OC)c1OC` (configuration not stated), the outcome was inactive.
Regarding `C[P+](Cc1ccccc1)(c1ccccc1)c1ccccc1`, the EC50 was 0.0631 µM and the IC50 stood at 14.5 µM.
As for `COc1ccc(-c2c3c([nH]c(=S)c2C#N)CCC3)cc1`, the EC50 was 178 µM and the IC50 is above 200 µM.
Take `N#CC1(N2CCCC2)CCC2(CC1)OCCO2`: the result was inactive.
Consider `c1ccc(-c2nnc3nn4c(-c5ccccc5)cnnc4c3c2-c2ccccc2)cc1`, for which the EC50 was above 9.33 µM and the IC50 is above 9.33 µM.
Regarding `c1cnc2c(c1)Nc1cnncc1S2`, the EC50 is above 200 µM and the IC50 is above 200 µM.
Take `CCCC(=O)c1ccc(=O)n(C)c1`: the EC50 was above 1380 µM and the half-maximal inhibitory concentration (IC50) was found to be 1070 µM.
In the same order, the values of `Cc1ccc(-c2c(C#N)c(-c3ccc(Cl)cc3)c(C#N)c(=O)n2NS(=O)(=O)c2ccccc2)cc1` are above 200 µM and 29.5 µM.
Consider `S=C1NCCO1`, for which the EC50 is above 200 µM and the IC50 was determined as 105 µM.
In the same order, the values of `Cc1nnc(N)nc1/C=C/c1c(O)ccc2ccccc12` are above 200 µM and 26.3 µM.
As for `CN1C(=O)C23CCCN2C(=O)C1(C)SC(=N)S3` (configuration not stated), the EC50 is above 200 µM and the IC50 was above 200 µM.
In the case of `Nc1c[nH][nH]c(=S)c1=S`, the EC50 is above 200 µM and the IC50 turned out to be 3.63 µM.
For the compound `NCCSS(=O)(=O)CCN`, the EC50 is above 363 µM.
On to `CCN(CC)CC(=O)Nc1ccc(Cl)cc1Cc1ccccc1`, for which the EC50 was above 200 µM and the IC50 was 91.2 µM.
For `COC(=O)C1(c2ccc(N(C)C)cc2OC)CCCN(C(=O)Oc2ccccc2[N+](=O)[O-])CCc2c1[nH]c1ccccc21` (configuration not stated), the EC50 was above 200 µM and the IC50 is above 200 µM.
For `Cc1c(C)c2ccc(O)cc2[nH]c1=O`, the EC50 is above 200 µM and the IC50 stood at 182 µM.
In the same order, the values of `NC(CC(=O)OCc1ccccc1)C(=O)OCc1ccccc1` (configuration not stated) are above 200 µM and above 200 µM.
In the same order, the values of `Fc1cccc(C2ON=C(c3ccccc3)N2C23CC4CC(CC(C4)C2)C3)c1` (configuration not stated) are above 200 µM and above 200 µM.
In the same order, the values of `N#C/C(C(=O)Nc1ccccc1)=C(/N)N1CCOCC1` are above 200 µM and above 200 µM.
In the case of `NCCCS(=O)(=O)O`, the EC50 is above 200 µM and the IC50 was above 200 µM.
As to `Cc1cc(Cc2c(F)c(F)c(C(c3cc(C)no3)c3c(F)c(F)c(F)c(F)c3F)c(F)c2F)on1` (configuration not stated), the EC50 was above 200 µM and the IC50 is 3.39 µM.
Consider `O=C(O)c1ccccc1C(=O)OC1CC2CC1C1OCC21` (configuration not stated), for which the EC50 is above 309 µM and the IC50 is above 309 µM.
Turning to `CCOC(=O)/C=C/c1cccc(F)c1`, the EC50 was above 200 µM and the IC50 was above 200 µM.
Consider `CCCCCCCC/C=C\CCCCCCC(F)C(=O)O` (configuration not stated), for which the EC50 was 33.1 µM and the IC50 is above 200 µM.
In the same order, the values of `COc1cccc(NC(=O)N/C(=C/c2ccc(N(CCC#N)CCC#N)cc2)NC(=O)c2cc([N+](=O)[O-])ccc2Cl)c1` are above 12.3 µM and 11.5 µM.
In the same order, the values of `CN1C(=S)C(c2ccccc2)Sc2ccccc21` (configuration not stated) are above 200 µM and 42.7 µM.
For the compound `Cc1cccc(N(C(=O)Nc2ccc(Cl)c(Cl)c2)C2=NCC(C)S2)c1` (configuration not stated), the EC50 was above 200 µM and the IC50 was above 200 µM.
As for `O=S(O)c1cc(Cl)cc(Cl)c1OCc1ccccc1`, the outcome was inactive.
The same measure, in the same setting: under `CCN(CC)CC1CCCCCCCCCCC1=O` (configuration not stated) stands “inactive”.
With `CC1=C[C@@]2(C=C(C(=O)O)[C@@]34CCCC(C)(C)C3C[C@@H]2OC4)OC1=O` (some centres not stated), the EC50 was above 380 µM and the IC50 is above 380 µM.
Take `CC1Oc2c3c(cc(O)c2C(=O)[C@@H]1C)OC(C)(C)CC3` (some centres not stated): the EC50 is above 200 µM and the IC50 is 50.1 µM.
In the same order, the values of `CCC(C)C(N)C(=O)NC(CC(N)=O)C(=O)NC(CC(C)C)C(=O)NC(CCCCN)C(=O)NC(C)C(=O)NC(CC(C)C)C(=O)NC(C)C(=O)NC(C)C(=O)NC(CC(C)C)C(=O)NC(C)C(=O)NC(CCCCN)C(=O)NC(CCCCN)C(=O)NC(C(=O)NC(CC(C)C)C(N)=O)C(C)CC` (configuration not stated) are 40.7 µM and 43.7 µM.
Turning to `NC(CC(O)(c1ccccc1)c1ccccc1)c1ccccc1S` (configuration not stated), the EC50 was above 200 µM.
Turning to `O=C(CNC1=NCCN1)Nc1ccc(NC(=O)c2ccc(C(=O)Nc3ccc(NC(=O)CNC4=NCCN4)cc3)cc2)cc1`, the EC50 was 24 µM and the IC50 was above 200 µM.
In the same order, the values of `COc1ccc2c(c1)OC[C@@H]1c3ccc(OCc4ccccc4)cc3O[C@H]21` are 46.8 µM and above 200 µM.
